In paper PMC9026280, “Reverse Electron Transfer by Respiratory Complex I Catalyzed in a Modular Proteoliposome System” (Journal of the American Chemical Society, 2022):

Assays:
Format in all cases: biochemical
[1] = target: T1, Complex I from Y. lipolytica (Yarrowia lipolytica, UniProt Q9B6E8+Q9UUT7+Q9UUU1+Q9UUU2); experiment: NADH:O2 oxidoreduction (FET) in CI proteoliposomes with AOX, spectrophotometric; settings: 200 μM NADH
T1 construct: gene nubm; complex purified from Y. lipolytica, whole multi-subunit enzyme, reconstituted in proteoliposomes with E. coli F1FO ATP synthase

[2] = target: T2, complex I from mouse heart (Mus musculus) (Mus musculus, UniProt P03888+Q91WD5+Q91YT0+Q9DC70); experiment: as above; settings: 200 μM NADH, membrane Q10, pH 7.5, 32 °C
T2 construct: gene Ndufv1; native complex purified from mouse heart, whole multi-subunit enzyme, reconstituted in proteoliposomes with E. coli F1FO ATP synthase

[3] = target: T2, complex I from mouse heart (Mus musculus); experiment: NAD+ reduction by RET in CI-F1FO proteoliposomes with GlpD, spectrophotometric; settings: Δp-linked RET; 1 mM NAD+, ATP, rac-G3P, β-CD, pH 7.5, 32 °C
P. pastoris complex I [4] = target: T3, P. pastoris complex I (Komagataella pastoris, UniProt E1UWA8+E1UWB5+E1UWC2); experiment: as above; settings: membrane concentration, Δp-linked, ATP, rac-G3P, β-CD, preheated 37 °C 15 min, assay pH 7.5, 32 °C
T3 construct: gene nucm; native complex purified from P. pastoris, whole multi-subunit enzyme, reconstituted in proteoliposomes with E. coli F1FO ATP synthase; with NADH dehydrogenase [ubiquinone] flavoprotein 1, mitochondrial (51 kDa subunit)

P. pastoris complex I [5] = target: T3, P. pastoris complex I; experiment: NADH:O2 oxidoreduction (FET) in CI proteoliposomes with AOX, spectrophotometric; settings: membrane Q10 concentration; 200 μM NADH, pH 7.5, 32 °C
[6] = target: T4, complex I from B. taurus (bovine complex I) (Bos taurus, UniProt P03887+P17694+P25708+P42026); experiment: as above
T4 construct: gene NDUFS2; AOX or GlpD added; with NADH dehydrogenase [ubiquinone] flavoprotein 2, mitochondrial; NADH-ubiquinone oxidoreductase 75 kDa subunit, mitochondrial; NADH dehydrogenase [ubiquinone] iron-sulfur protein 3, mitochondrial; NADH dehydrogenase [ubiquinone] iron-sulfur protein 8, mitochondrial; NADH-ubiquinone oxidoreductase chain 2; NADH-ubiquinone oxidoreductase chain 3; NADH-ubiquinone oxidoreductase chain 4; NADH-ubiquinone oxidoreductase chain 4L; NADH-ubiquinone oxidoreductase chain 5; NADH-ubiquinone oxidoreductase chain 6

NC(=O)C1=CN([C@@H]2O[C@H](COP(=O)(O)OP(=O)(O)OC[C@H]3O[C@@H](n4cnc5c(N)ncnc54)[C@H](O)[C@@H]3O)[C@@H](O)[C@H]2O)C=CC1 [NADH]
NADH:O2 oxidoreduction (FET) in CI proteoliposomes with AOX, spectrophotometric ([1]; membrane Q10, pH 7.5, 32 °C): Complex I from Y. lipolytica consistently showed remarkably high rates of NADH oxidation in proteoliposomes | NADH:O2 oxidoreduction (FET) in CI proteoliposomes with AOX, spectrophotometric [2]: Representative FET activities for proteoliposomes containing complex I from B. taurus (Bt), M. musculus (Mm)

NC(=O)c1ccc[n+]([C@@H]2O[C@H](COP(=O)(O)OP(=O)(O)OC[C@H]3O[C@@H](n4cnc5c(N)ncnc54)[C@H](O)[C@@H]3O)[C@@H](O)[C@H]2O)c1 [NAD^+]
NAD+ reduction by RET in CI-F1FO proteoliposomes with GlpD, spectrophotometric [3]: by Δp-linked NAD^+ reduction (Figure 6B), that mouse complex I is capable of RET

COc1c(O)c(C)c(C/C=C(\C)CC/C=C(\C)CC/C=C(\C)CC/C=C(\C)CC/C=C(\C)CC/C=C(\C)CC/C=C(\C)CC/C=C(\C)CC/C=C(\C)CCC=C(C)C)c(O)c1OC [Q10H2]
KM (Q10H2) (P. pastoris complex I [4]): the KM for Q10H2 was again significantly higher than for Q10

COC1=C(OC)C(=O)C(C/C=C(\C)CC/C=C(\C)CC/C=C(\C)CC/C=C(\C)CC/C=C(\C)CC/C=C(\C)CC/C=C(\C)CC/C=C(\C)CC/C=C(\C)CCC=C(C)C)=C(C)C1=O [Q10]
KM (Q10) (P. pastoris complex I [5]): The KM values for both Q10 and Q10H2 were both lower for P. pastoris | NADH:O2 oxidoreduction (FET) in CI proteoliposomes with AOX, spectrophotometric ([1]; membrane Q10 as acceptor, pH 7.5, 32 °C): Complex I from Y. lipolytica consistently showed remarkably high rates of NADH oxidation in proteoliposomes

C/C=C(\C)[C@H](O)[C@H](C)/C=C(C)/C=C/C/C(C)=C/Cc1nc(OC)c(OC)c(O)c1C [piericidin A]
IC50 [6]: 7.8 ± 0.1 nM
